Data as given in patent US9346815B2, “5-chloro-2-difluoromethoxyphenyl pyrazolopyrimidine compounds, compositions and methods of use thereof” (Genentech, Inc., priority 2014, dated 2016).
pEC50, pKi: −log10 of the molar value. Counter-ions that a name gives are not always drawn.

How the values were obtained:
[1] = molecular target: isolated recombinant JAK1 kinase domain (Homo sapiens (Human), UniProt P23458); assay: JAK1 enzyme assay (Caliper LabChip, peptide phosphorylation); assay type: biochemical; details: isolated recombinant JAK1 kinase domain, 25 μM ATP
Sequence of isolated recombinant JAK1 kinase domain (P23458 875-1153): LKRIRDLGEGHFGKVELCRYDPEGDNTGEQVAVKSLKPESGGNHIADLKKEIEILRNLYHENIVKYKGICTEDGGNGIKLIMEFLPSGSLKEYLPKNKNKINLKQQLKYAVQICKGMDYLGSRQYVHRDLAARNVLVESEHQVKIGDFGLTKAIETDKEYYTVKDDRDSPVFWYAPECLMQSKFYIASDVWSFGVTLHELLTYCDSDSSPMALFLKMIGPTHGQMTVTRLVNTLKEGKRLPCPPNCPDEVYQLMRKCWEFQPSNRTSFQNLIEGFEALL

[2] = molecular target: isolated recombinant JAK2 kinase domain (Homo sapiens (Human), UniProt O60674); assay: JAK2 enzyme assay (Caliper LabChip, peptide phosphorylation); assay type: biochemical; details: 25 μM ATP
Sequence of isolated recombinant JAK2 kinase domain (O60674 849-1124): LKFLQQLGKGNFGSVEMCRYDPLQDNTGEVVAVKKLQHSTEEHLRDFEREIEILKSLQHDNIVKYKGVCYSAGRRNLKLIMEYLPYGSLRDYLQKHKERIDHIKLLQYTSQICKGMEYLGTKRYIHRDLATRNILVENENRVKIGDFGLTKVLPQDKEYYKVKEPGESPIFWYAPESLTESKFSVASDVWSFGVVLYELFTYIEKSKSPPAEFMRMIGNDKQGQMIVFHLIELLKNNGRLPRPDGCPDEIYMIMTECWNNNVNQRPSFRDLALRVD

[3] = tested on: JAK1-dependent STAT6 phosphorylation downstream of IL-13 stimulation in TF-1 human erythroleukemia cells; assay: JAK1 pathway assay in TF-1 cells (IL-13-pSTAT6, MSD); assay type: cell-based; details: Homo sapiens, TF-1, TF-1 cells, read-out: IL13-pSTAT6 EC50_TF-1
Procedure: JAK1 Pathway Assay in Cell Lines was Carried Out as Follows:
Inhibitor potency (EC50) was determined in cell-based assays designed to measure JAK1 dependent STAT phosphorylation.
In one assay approach, TF-1 human erythroleukemia cells obtained from the American Type Culture Collection (ATCC; Manassas, Va.) were used to measure JAK1-dependent STAT6 phosphorylation downstream of IL-13 stimulation. Prior to use in the assays, TF-1 cells were starved of GM-CSF overnight in OptiMEM medium (Life Technologies, Grand Island, N.Y.) supplemented with 0.5% charcoal/dextran stripped fetal bovine serum (FBS), 0.1 mM non-essential amino acids (NEAA), and 1 mM sodium pyruvate. The assays were run in 384-well plates in serum-free OptiMEM medium using 300,000 cells per well. In a second assay approach, BEAS-2B human bronchial epithelial cells obtained from ATCC were plated at 100,000 cells per well of a 96-well plate one day prior to the experiment. The BEAS-2B assay was run in complete growth medium (bronchial epithelial basal medium plus bulletkit; Lonza; Basel, Switzerland).
Test compounds were serially diluted 1:2 in DMSO and then diluted 1:50 in medium just before use. Diluted compounds were added to the cells, for a final DMSO concentration of 0.2%, and incubated for 30 min (for the TF-1 assay) or 1 hr (for the BEAS-2B assay) at 37° C. Then, cells were stimulated with human recombinant cytokine at their respective EC90 concentrations, as previously determined for each individual lot. Cells were stimulated with IL-13 (R&D Systems, Minneapolis, Minn.) for 15 min at 37° C. The TF-1 cell reactions were stopped by the direct addition of 10× lysis buffer (Cell Signaling Technologies, Danvers, Mass.), whereas the BEAS-2B cell incubations were halted by the removal of medium and addition of 1× lysis buffer. The resultant samples were frozen in the plates at −80° C. Compound mediated inhibition of STAT6 phosphorylation was measured in the cell lysates using MesoScale Discovery (MSD) technology (Gaithersburg, Md.).

pKi [1] | pKi [2] | pEC50 [3] | SMILES
8.79 | 9.34 | 7.68 | O=C(Nc1cn(C2CCNCC2)nc1-c1cc(Cl)ccc1OC(F)F)c1cnn2cccnc12 [Example 1, Pyrazolo[1,5-a]pyrimidine-3-carboxylic acid [3-(5-chloro-2-difluoromethoxyphenyl)-1-piperidin-4-yl-1H-pyrazol-4-yl]amide hydrochloride]
9.18 | 9.10 | 6.26 | O=C(Nc1cn(CC(=O)N2C[C@H]3CNC[C@H]3C2)nc1-c1cc(Cl)ccc1OC(F)F)c1cnn2cccnc12 [Example 4, Cis-pyrazolo[1,5-a]pyrimidine-3-carboxylic acid {3-(5-chloro-2-difluoromethoxyphenyl)-1-[2-(hexahydropyrrolo[3,4-c]pyrrol-2-yl)-2-oxoethyl]-1H-pyrazol-4-yl}amide]
9.08 | 9.11 | 7.95 | CCN1C[C@@H]2CN(C(=O)Cn3cc(NC(=O)c4cnn5cccnc45)c(-c4cc(Cl)ccc4OC(F)F)n3)C[C@@H]2C1 [Example 5, Cis pyrazolo[1,5-a]pyrimidine-3-carboxylic acid {3-(5-chloro-2-difluoromethoxyphenyl)-1-[2-(5ethyl-hexahydro-pyrrolo[3,4-c]pyrrol-2-yl)-2-oxoethyl]-1H-pyrazol-4-yl}amide hydrochloride]
 | 9.21 | 7.24 | CN(C)C(=O)N1CCC(CN2C[C@@H]3CN(C(=O)Cn4cc(NC(=O)c5cnn6cccnc56)c(-c5cc(Cl)ccc5OC(F)F)n4)C[C@@H]3C2)CC1 [Example 36, N-[1-[2-[(3aR,6aS)-2-[[1-(dimethylcarbamoyl)-4-piperidyl]methyl]-1,3,3a,4,6,6a-hexahydropyrrolo[3,4-c]pyrrol-5-yl]-2-oxo-ethyl]-3-[5-chloro-2-(difluoromethoxy)phenyl]pyrazol-4-yl]pyrazolo[1,5-a]pyrimidine-3-carboxamide]
9.13 |  | 8.16 | CN1CCC2CN(C(=O)Cn3cc(NC(=O)c4c(N)nn5cccnc45)c(-c4cc(Cl)ccc4OC(F)F)n3)CCC21 (stereo not shown) [Example 56, 2-amino-N-[3-[5-chloro-2-(difluoromethoxy)phenyl]-1-[2-(1-methyl-3,3a,4,6,7,7a-hexahydro-2H-pyrrolo[3,2-c]pyridin-5-yl)-2-oxo-ethyl]pyrazol-4-yl]pyrazolo[1,5-a]pyrimidine-3-carboxamide]
 | 9.89 | 7.82 | Nc1nn2cccnc2c1C(=O)Nc1cn(CC(=O)N2C[C@H]3CN(CC4CC4)C[C@H]3C2)nc1-c1cc(Cl)ccc1OC(F)F [Example 57, N-[1-[2-[(3aS,6aR)-2-(cyclopropylmethyl)-1,3,3a,4,6,6a-hexahydropyrrolo[3,4-c]pyrrol-5-yl]-2-oxo-ethyl]-3-[5-chloro-2-(difluoromethoxy)phenyl]pyrazol-4-yl]-2-amino-pyrazolo[1,5-a]pyrimidine-3-carboxamide]
8.27 |  | 6.60 | NC[C@@H]1CCCN1C(=O)Cn1cc(NC(=O)c2cnn3cccnc23)c(-c2cc(Cl)ccc2OC(F)F)n1 [Example 81, N-[1-[2-[(2S)-2-(aminomethyl)pyrrolidin-1-yl]-2-oxo-ethyl]-3-[5-chloro-2-(difluoromethoxy)phenyl]pyrazol-4-yl]pyrazolo[1,5-a]pyrimidine-3-carboxamide]
8.89 |  | 7.02 | O=C(Nc1cn(CC(=O)N2CCC(NCCc3ccc(C(F)(F)F)cc3)CC2)nc1-c1cc(Cl)ccc1OC(F)F)c1cnn2cccnc12 [Example 93, N-[3-[5-chloro-2-(difluoromethoxy)phenyl]-1-[2-oxo-2-[4-[2-[4-(trifluoromethyl)phenyl]ethylamino]-1-piperidyl]ethyl]pyrazol-4-yl]pyrazolo[1,5-a]pyrimidine-3-carboxamide]
9.26 |  | 7.93 | Nc1nn2cccnc2c1C(=O)Nc1cn(C2CCN(CCCC(=O)N3CCOCC3)CC2)nc1-c1cc(Cl)ccc1OC(F)F [Example 147, 2-amino-N-[3-[5-chloro-2-(difluoromethoxy)phenyl]-1-[1-(4-morpholino-4-oxo-butyl)-4-piperidyl]pyrazol-4-yl]pyrazolo[1,5-a]pyrimidine-3-carboxamide]
 | 9.77 | 7.66 | Nc1nn2cccnc2c1C(=O)Nc1cn(C2CCCNCC2)nc1-c1cc(Cl)ccc1OC(F)F (stereo not shown) [Example 171, 2-amino-N-[1-(azepan-4-yl)-3-[5-chloro-2-(difluoromethoxy)phenyl]pyrazol-4-yl]pyrazolo[1,5-a]pyrimidine-3-carboxamide]
 |  | 8.46 | CN1CCC(n2cc(NC(=O)c3c(N)nn4cccnc34)c(-c3cc(Cl)ccc3OC(F)F)n2)CC1 [Example 184, 2-amino-N-[3-[5-chloro-2-(difluoromethoxy)phenyl]-1-(1-methyl-4-piperidyl)pyrazol-4-yl]pyrazolo[1,5-a]pyrimidine-3-carboxamide]
 |  | 8.21 | CN(C)C1CCN(C(=O)C2CCN(c3nc(-c4cc(Cl)ccc4OC(F)F)c(NC(=O)c4cnn5cccnc45)s3)CC2)CC1 [Example 197, N-[4-[5-chloro-2-(difluoromethoxy)phenyl]-2-[4-[4-(dimethylamino)piperidine-1-carbonyl]-1-piperidyl]thiazol-5-yl]pyrazolo[1,5-a]pyrimidine-3-carboxamide]
9.00 |  | 7.12 | CN1CC2(CCN(C(=O)Cn3cc(NC(=O)c4cnn5cccnc45)c(-c4cc(Cl)ccc4OC(F)F)n3)CC2)C1 [Example 218, N-[3-[5-chloro-2-(difluoromethoxy)phenyl]-1-[2-(2-methyl-2,7-diazaspiro[3.5]nonan-7-yl)-2-oxo-ethyl]pyrazol-4-yl]pyrazolo[1,5-a]pyrimidine-3-carboxamide]
 | 8.89 | 5.99 | O=C(Nc1cn(CC(=O)N2CCC3(CNC3)C2)nc1-c1cc(Cl)ccc1OC(F)F)c1cnn2cccnc12 [Example 219, N-[3-[5-chloro-2-(difluoromethoxy)phenyl]-1-[2-(2,6-diazaspiro[3.4]octan-6-yl)-2-oxo-ethyl]pyrazol-4-yl]pyrazolo[1,5-a]pyrimidine-3-carboxamide]
9.04 |  | 6.88 | CN1CC2(CCN(C(=O)Cn3cc(NC(=O)c4cnn5cccnc45)c(-c4cc(Cl)ccc4OC(F)F)n3)C2)C1 [Example 221, N-[3-[5-chloro-2-(difluoromethoxy)phenyl]-1-[2-(2-methyl-2,6-diazaspiro[3.4]octan-6-yl)-2-oxo-ethyl]pyrazol-4-yl]pyrazolo[1,5-a]pyrimidine-3-carboxamide]
 |  | 7.37 | CN1C[C@H]2C[C@@H]1CN2C(=O)Cn1cc(NC(=O)c2c(N)nn3cccnc23)c(-c2cc(Cl)ccc2OC(F)F)n1 [Example 252, 2-amino-N-[3-[5-chloro-2-(difluoromethoxy)phenyl]-1-[2-[(1R,4R)-5-methyl-2,5-diazabicyclo[2.2.1]heptan-2-yl]-2-oxo-ethyl]pyrazol-4-yl]pyrazolo[1,5-a]pyrimidine-3-carboxamide]
8.82 |  | 7.72 | O=C(Nc1sc(CN2CCCCC2)nc1-c1cc(Cl)ccc1OC(F)F)c1cnn2cccnc12 [Example 263, N-[4-[5-chloro-2-(difluoromethoxy)phenyl]-2-(1-piperidylmethyl)thiazol-5-yl]pyrazolo[1,5-a]pyrimidine-3-carboxamide]
9.31 |  | 8.26 | O=C(Nc1cn(CC(=O)N2CCC[C@H]2CO)nc1-c1cc(Cl)ccc1OC(F)F)c1cnn2cccnc12 [Example 268, N-[3-[5-chloro-2-(difluoromethoxy)phenyl]-1-[2-[(2S)-2-(hydroxymethyl)pyrrolidin-1-yl]-2-oxo-ethyl]pyrazol-4-yl]pyrazolo[1,5-a]pyrimidine-3-carboxamide]
 | 9.35 | 8.66 | N#CC1(c2ccccc2)CCN(C(=O)Cn2cc(NC(=O)c3cnn4cccnc34)c(-c3cc(Cl)ccc3OC(F)F)n2)CC1 [Example 281, N-[3-[5-chloro-2-(difluoromethoxy)phenyl]-1-[2-(4-cyano-4-phenyl-1-piperidyl)-2-oxo-ethyl]pyrazol-4-yl]pyrazolo[1,5-a]pyrimidine-3-carboxamide]
8.30 | 8.49 |  | CCOC(=O)CN(CCn1cc(NC(=O)c2cnn3cccnc23)c(-c2cc(Cl)ccc2OC(F)F)n1)Cc1cccnc1 [Example 362, ethyl 2-[(2-[3-[5-chloro-2-(difluoromethoxy)phenyl]-4-[pyrazolo[1,5-a]pyrimidine-3-amido]-1H-pyrazol-1-yl]ethyl)(pyridin-3-ylmethyl)amino]acetate]
